Data on 1 substance can be found in US6689349B1, “Skin protection agents containing a fragment mixture produced from hyaluronic acid by hydrolysis” (esparma GmbH, priority 1998, dated 2004).

One data set has as its system HaCaT keratinocytes. Nature of the data set: toxicity test: DNA synthesis performance by BrdU incorporation. Format: cell-based, human. Conditions: 24-hour incubation. The procedure:
In order to characterise the influence of hyaluronic acid fragments of differing relative molar mass on the proliferation behaviour of human keratinocytes (HaCaT keratinocytes—made available by Prof. Dr. Norbert E. Fusenig: Deutsches Krebsforschungsinstitut Heidelberg, Germany), the DNA synthesis performance is determined with the aid of BrdU incorporation (Cell Proliferation ELISA, BrdU calorimetric—Boehringer Mannheim, Mannheim, Germany) into the DNA after a 24-hour period of incubation. For the following hyaluronic acid fragments examined, no toxic reaction of the cells could be observed.

The nature of data set [1]: lucigenin-reinforced xanthine oxidase test (radical binding, chemiluminescence). Conditions: cell-free system. Format: biochemical. The method, then:
The property of binding reducing radicals, is measured in cell-free systems with a lucigenin-reinforced xanthine oxidase test on the basis of the conversion of hypoxanthine to uric acid. The O2-radicals produced in this process can be detected with lucigenin by relative chemiluminescence measurement. By the radical scavengers present, the O2-radicals are neutralised and the chemiluminescence yield reduced. […] An amount of 1 mg of the hyaluronic acid fragment according to the invention with a relative molar mass of 100 to 160 kD has a radical-binding activity which corresponds to that of 200 to 400 μg allopurinol. Hyaluronic acid with a relative molar mass of 1,800 kD has, on the other hand, a negligible radical-binding activity (Pierce, L. A., W. O. Tarnow-Mordi and I. A, Cree: Antibiotics Effects on Phagocyte Chemilunieszence in Vitro. In J. Clin. Lab. Res.- (1995) 25, 93-98).

Take hyaluronic acid: the “toxic reaction of the cells / tolerance (DNA synthesis performance, BrdU incorporation)” value in the data set with HaCaT keratinocytes was “very good tolerance”. In addition, the radical-binding activity entry in data set [1] was “negligible”.
